In PubChem BioAssay (NCI):
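48-hour exposure; five concentrations; linearly interpolated endpoints. TGI denotes the concentration required for complete inhibition of growth.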

Columns and labels:
Assay in all cases: growth of human tumour cells (NCI), 48 h
BT-549 breast = system: BT-549 breast
SR leukemia = system: SR leukemia
HCT-116 colon = system: HCT-116 colon
SF-539 CNS = system: SF-539 CNS
HL-60(TB) leukemia = system: HL-60(TB) leukemia
NCI-H226 lung = system: NCI-H226 lung
PC-3 prostate = system: PC-3 prostate
SK-OV-3 ovarian = system: SK-OV-3 ovarian
CCRF-CEM leukemia = system: CCRF-CEM leukemia
A549 NSCLC = system: A549 NSCLC
HOP-62 NSCLC = system: HOP-62 NSCLC
RPMI-8226 leukemia = system: RPMI-8226 leukemia
SN12C renal = system: SN12C renal
K-562 leukemia = system: K-562 leukemia
NCI-H460 lung = system: NCI-H460 lung
UACC-257 melanoma = system: UACC-257 melanoma
MALME-3M melanoma = system: MALME-3M melanoma
SF-268 CNS = system: SF-268 CNS
MDA-N = system: MDA-N
HCT-15 colon = system: HCT-15 colon
EKVX NSCLC = system: EKVX NSCLC
T-47D breast = system: T-47D breast
SW-620 colon = system: SW-620 colon
KM12 colon = system: KM12 colon
CAKI-1 renal = system: CAKI-1 renal
A498 renal = system: A498 renal
COLO 205 colon = system: COLO 205 colon
UACC-62 melanoma = system: UACC-62 melanoma
RXF 393 renal = system: RXF 393 renal
786-0 renal = system: 786-0 renal
HOP-92 NSCLC = system: HOP-92 NSCLC
IGROV1 ovarian = system: IGROV1 ovarian
DU-145 prostate = system: DU-145 prostate
SK-MEL-5 melanoma = system: SK-MEL-5 melanoma
HCC-2998 colon = system: HCC-2998 colon
OVCAR-5 ovarian = system: OVCAR-5 ovarian
HS 578T breast = system: HS 578T breast
MOLT-4 leukemia = system: MOLT-4 leukemia
UO-31 renal = system: UO-31 renal
OVCAR-4 ovarian = system: OVCAR-4 ovarian
U251 CNS = system: U251 CNS
TK-10 renal = system: TK-10 renal
ACHN renal = system: ACHN renal
HT29 colon = system: HT29 colon
MDA-MB-435 = system: MDA-MB-435
SK-MEL-28 melanoma = system: SK-MEL-28 melanoma
OVCAR-8 ovarian = system: OVCAR-8 ovarian
SNB-75 CNS = system: SNB-75 CNS
M14 melanoma = system: M14 melanoma
SF-295 CNS = system: SF-295 CNS
OVCAR-3 ovarian = system: OVCAR-3 ovarian
NCI-H522 lung = system: NCI-H522 lung
SNB-19 CNS = system: SNB-19 CNS
NCI/ADR-RES ovarian = system: NCI/ADR-RES ovarian
SK-MEL-2 melanoma = system: SK-MEL-2 melanoma
LOX IMVI melanoma = system: LOX IMVI melanoma
NCI-H23 lung = system: NCI-H23 lung

## C(=Nc1ccc(-c2nc3ccccc3s2)cc1)c1cccs1
BT-549 breast
  TGI: > 100 µM
SR leukemia
  TGI: > 100 µM
HCT-116 colon
  TGI: > 100 µM
SF-539 CNS
  TGI: > 100 µM
HL-60(TB) leukemia
  TGI: 0.0298 µM
NCI-H226 lung
  TGI: > 100 µM
PC-3 prostate
  TGI: > 100 µM
SK-OV-3 ovarian
  TGI: > 100 µM
CCRF-CEM leukemia
  TGI: 3.76 µM
A549 NSCLC
  TGI: > 100 µM
HOP-62 NSCLC
  TGI: > 100 µM
RPMI-8226 leukemia
  TGI: > 100 µM
SN12C renal
  TGI: > 100 µM
K-562 leukemia
  TGI: > 100 µM
NCI-H460 lung
  TGI: > 100 µM
UACC-257 melanoma
  TGI: > 100 µM
MALME-3M melanoma
  TGI: > 100 µM
SF-268 CNS
  TGI: > 100 µM
MDA-N
  TGI: > 100 µM
HCT-15 colon
  TGI: > 100 µM
EKVX NSCLC
  TGI: > 100 µM
T-47D breast
  TGI: > 100 µM
SW-620 colon
  TGI: > 100 µM
KM12 colon
  TGI: > 100 µM
CAKI-1 renal
  TGI: > 100 µM
A498 renal
  TGI: 76.6 µM
COLO 205 colon
  TGI: > 100 µM
UACC-62 melanoma
  TGI: > 100 µM
RXF 393 renal
  TGI: 85.3 µM
786-0 renal
  TGI: > 100 µM
HOP-92 NSCLC
  TGI: 90.7 µM
IGROV1 ovarian
  TGI: > 100 µM
DU-145 prostate
  TGI: > 100 µM
SK-MEL-5 melanoma
  TGI: > 100 µM
HCC-2998 colon
  TGI: > 100 µM
OVCAR-5 ovarian
  TGI: > 100 µM
HS 578T breast
  TGI: > 100 µM
MOLT-4 leukemia
  TGI: > 100 µM
UO-31 renal
  TGI: > 100 µM
OVCAR-4 ovarian
  TGI: > 100 µM
U251 CNS
  TGI: > 100 µM
TK-10 renal
  TGI: 78 µM
ACHN renal
  TGI: > 100 µM
HT29 colon
  TGI: > 100 µM
MDA-MB-435
  TGI: > 100 µM
SK-MEL-28 melanoma
  TGI: > 100 µM
OVCAR-8 ovarian
  TGI: > 100 µM
SNB-75 CNS
  TGI: > 100 µM
M14 melanoma
  TGI: > 100 µM
SF-295 CNS
  TGI: 68.8 µM
OVCAR-3 ovarian
  TGI: > 100 µM
NCI-H522 lung
  TGI: > 100 µM
SNB-19 CNS
  TGI: > 100 µM
NCI/ADR-RES ovarian
  TGI: > 100 µM
SK-MEL-2 melanoma
  TGI: > 100 µM
LOX IMVI melanoma
  TGI: > 100 µM
NCI-H23 lung
  TGI: > 100 µM
